33 compounds from patent publication US20260265195A1, “SARM1 MODULATORS, PREPARATIONS, AND USES THEREOF” (SIRONAX LTD, priority 2022, published 2026) can be followed below.

Structures are written as SMILES.

For the experiment, the target named is T1, SARM1 (50-724) (Homo sapiens, UniProt Q6SZW1).
T1 construct: Purified SARM1 (50-724) with a final concentration of 2 nM
T1 sequence (Q6SZW1 50-724): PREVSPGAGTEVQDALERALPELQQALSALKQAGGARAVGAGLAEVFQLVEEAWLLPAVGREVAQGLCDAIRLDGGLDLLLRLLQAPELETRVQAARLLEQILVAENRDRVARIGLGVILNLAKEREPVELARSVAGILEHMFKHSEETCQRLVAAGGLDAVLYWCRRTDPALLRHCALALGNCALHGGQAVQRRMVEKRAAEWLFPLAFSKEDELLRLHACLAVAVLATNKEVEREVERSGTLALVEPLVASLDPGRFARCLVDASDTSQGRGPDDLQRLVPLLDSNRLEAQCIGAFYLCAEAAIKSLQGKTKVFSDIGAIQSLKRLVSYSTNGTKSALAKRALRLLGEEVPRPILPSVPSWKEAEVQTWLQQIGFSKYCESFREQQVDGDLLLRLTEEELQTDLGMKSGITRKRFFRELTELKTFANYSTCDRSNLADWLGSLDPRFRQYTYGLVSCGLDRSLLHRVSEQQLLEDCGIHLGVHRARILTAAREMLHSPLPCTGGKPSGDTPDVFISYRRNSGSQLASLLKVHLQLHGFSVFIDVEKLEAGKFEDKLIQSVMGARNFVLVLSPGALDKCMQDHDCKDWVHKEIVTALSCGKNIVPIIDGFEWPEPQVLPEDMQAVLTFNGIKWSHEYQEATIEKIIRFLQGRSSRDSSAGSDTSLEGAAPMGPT
As to the kind of experiment: SARM1 (50-724) enzymatic assay (NMN-activated NAD+ hydrolysis, LC-MS/MS readout). Conditions: purified SARM1 (50-724) 2 nM, 200 μM NMN activator, 100 μM NAD+ substrate, 1 h at room temperature, read-out: IC50 (SARM1 inhibitory activity). It counts as biochemical. The method, then: Example II. SARM1 (50-724) Enzymatic Assay
An enzymatic assay was performed in a 384-well plate using Dulbecco's phosphate-buffered saline (PBS) as the reaction buffer. Purified SARM1 (50-724) with a final concentration of 2 nM was pre-incubated with a test compound at 1% DMSO final assay concentration for 15 min at room temperature. The reaction was initiated by adding a mixture of 200 μM nicotinamide mononucleotide (NMN) as activator and 100 μM NAD^+ as substrate. After 1 h of incubation at room temperature, the reaction was terminated with 10 times volume of 70% acetonitrile, then centrifuged at 3800 rpm for 10 min. The samples were analyzed using LC-MS/MS after diluted to a proper concentration by 10 mM ammonium acetate (pH 9.75).
ND means “not determined.”
A word on the IC50: it is the concentration that inhibits the measured activity by half. `Cc1ccc2[nH]c(C(=O)N(CCN(C)C)C3CCCC3)nc2c1` [Compound 64, N-cyclopentyl-N-(2-(dimethylamino)ethyl)-5-methyl-1H-benzo[d]imidazole-2-carboxamide]: the IC50 was at least 1000 nM.
Next, `Cc1ccc2[nH]c(C(=O)N(CC3COC3)C3CCCC3)nc2c1` [Compound 65, N-cyclopentyl-5-methyl-N-(oxetan-3-ylmethyl)-1H-benzo[d]imidazole-2-carboxamide]: at least 1000 nM.
To `Cc1ccc2[nH]c(C(=O)N(C)C3CCCC3)c(CN)c2c1` [Compound 68, 3-(aminomethyl)-N-cyclopentyl-N,5-dimethyl-1H-indole-2-carboxamide] belongs at least 1000 nM; to `Cc1ccc2[nH]c(C(=O)N(C)c3cccc(Cl)c3Cl)c(C#N)c2c1` [Compound 69, 3-cyano-N-(2,3-dichlorophenyl)-N,5-dimethyl-1H-indole-2-carboxamide], at most 100 nM; to `Cc1ccc2[nH]c(C(=O)N(C)C3CCCC3)c(C#N)c2c1` [Compound 70, 3-cyano-N-cyclopentyl-N,5-dimethyl-1H-indole-2-carboxamide], 101 to 500 nM.
To `Cc1ccc2[nH]c(C(=O)N(CCO)c3cccc(Cl)c3Cl)c(C#N)c2c1` [Compound 71, 3-cyano-N-(2,3-dichlorophenyl)-N-(2-hydroxyethyl)-5-methyl-1H-indole-2-carboxamide] belongs at most 100 nM; to `Cc1ccc2[nH]c(C(=O)N(C)C3CCCC3)c(CNc3nc(C(N)=O)cs3)c2c1` [Compound 73, 2-(((2-(cyclopentyl(methyl)carbamoyl)-5-methyl-1H-indol-3-yl)methyl)amino)thiazole-4-carboxamide], 101 to 500 nM; to `Cc1ccc2[nH]c(C(=O)N(C)c3cccc(Cl)c3Cl)c(CNc3nc(C(N)=O)c(C(C)C)s3)c2c1` [Compound 74, 2-(((2-((2,3-dichlorophenyl)(methyl)carbamoyl)-5-methyl-1H-indol-3-yl)methyl)amino)-5-isopropylthiazole-4-carboxamide], at most 100 nM.
Take `Cc1ccc2[nH]c(C(=O)N(C)C3CCCC3)c(COc3nccs3)c2c1` [Compound 75, N-cyclopentyl-N,5-dimethyl-3-((thiazol-2-yloxy)methyl)-1H-indole-2-carboxamide]: the IC50 lay in the range of 501 to 1000 nM.
Next, `Cc1ccc2[nH]c(C(=O)N(C)C3CCCC3)c(CNc3nccs3)c2c1` [Compound 76, N-cyclopentyl-N,5-dimethyl-3-((thiazol-2-ylamino)methyl)-1H-indole-2-carboxamide]: 101 to 500 nM; `Cc1ccc2[nH]c(C(=O)N(C)C3CCCC3)c(CNc3ncc[nH]3)c2c1` [Compound 77, 3-(((1H-imidazol-2-yl)amino)methyl)-N-cyclopentyl-N,5-dimethyl-1H-indole-2-carboxamide]: at least 1000 nM.
To `Cc1ccc2[nH]c(C(=O)N(C)C3CCCC3)c(CNc3cncs3)c2c1` [Compound 78, N-cyclopentyl-N,5-dimethyl-3-((thiazol-5-ylamino)methyl)-1H-indole-2-carboxamide] belongs 101 to 500 nM; to `Cc1ccc2[nH]c(C(=O)N(C)c3cccc(Cl)c3Cl)c(CNc3nccs3)c2c1` [Compound 79, N-(2,3-dichlorophenyl)-N,5-dimethyl-3-((thiazol-2-ylamino)methyl)-1H-indole-2-carboxamide], at most 100 nM; to `Cc1ccc2[nH]c(C(=O)N(C)C3CCCC3)c(CNc3ncco3)c2c1` [Compound 80, N-cyclopentyl-N,5-dimethyl-3-((oxazol-2-ylamino)methyl)-1H-indole-2-carboxamide], at most 100 nM.
To `Cc1ccc2[nH]c(C(=O)N(C)C3CCCC3)c(CNc3cn[nH]c3)c2c1` [Compound 81, 3-(((1H-pyrazol-4-yl)amino)methyl)-N-cyclopentyl-N,5-dimethyl-1H-indole-2-carboxamide] belongs at least 1000 nM; to `Cc1ccc2[nH]c(C(=O)N(C)C3CCCC3)c(CNc3ccccn3)c2c1` [Compound 82, N-cyclopentyl-N,5-dimethyl-3-((pyridin-2-ylamino)methyl)-1H-indole-2-carboxamide], 101 to 500 nM.
Consider `Cc1ccc2[nH]c(C(=O)N(C)C3CCCC3)c(CNc3cc(C)[nH]n3)c2c1` [Compound 83, N-cyclopentyl-N,5-dimethyl-3-(((5-methyl-1H-pyrazol-3-yl)amino)methyl)-1H-indole-2-carboxamide], for which the half-inhibitory concentration (IC50) fell in the range of 101 to 500 nM.
To `Cc1ccc2[nH]c(C(=O)N(C)C3CCNCC3)c(CNc3ccccn3)c2c1` [Compound 84, N,5-dimethyl-N-(piperidin-4-yl)-3-((pyridin-2-ylamino)methyl)-1H-indole-2-carboxamide] belongs at least 1000 nM.
To `Cc1ccc2[nH]c(C(=O)N(C)C3CCN(C(=O)OC(C)(C)C)CC3)c(CNc3ccccn3)c2c1` [Compound 85, tert-butyl 4-(N,5-dimethyl-3-((pyridin-2-ylamino)methyl)-1H-indole-2-carboxamido)piperidine-1-carboxylate] belongs at least 1000 nM; to `Cc1ccc2[nH]c(C(=O)N(C)C3CCN(C)CC3)c(CNc3ccccn3)c2c1` [Compound 86, N,5-dimethyl-N-(1-methylpiperidin-4-yl)-3-((pyridin-2-ylamino)methyl)-1H-indole-2-carboxamide], at least 1000 nM.
Turning to `Cc1ccc2[nH]c(C(=O)N3CCCCC3)c(CNc3ccccn3)c2c1` [Compound 87, (5-methyl-3-((pyridin-2-ylamino)methyl)-1H-indol-2-yl)(piperidin-1-yl)methanone], the IC50 was at least 1000 nM.
To `Cc1ccc2[nH]c(C(=O)N(C)CCC(C)C)c(CNc3ccccn3)c2c1` [Compound 88, N-isopentyl-N,5-dimethyl-3-((pyridin-2-ylamino)methyl)-1H-indole-2-carboxamide] belongs at least 1000 nM; to `Cc1ccc2[nH]c(C(=O)NC(C)CC(C)C)c(CNc3ccccn3)c2c1` (stereo not drawn) [Compound 89, 5-methyl-N-(4-methylpentan-2-yl)-3-((pyridin-2-ylamino)methyl)-1H-indole-2-carboxamide], 501 to 1000 nM; to `Cc1ccc2[nH]c(C(=O)N(C)C3CCOCC3)c(CNc3ccccn3)c2c1` [Compound 90, N,5-dimethyl-3-((pyridin-2-ylamino)methyl)-N-(tetrahydro-2H-pyran-4-yl)-1H-indole-2-carboxamide], at least 1000 nM.
To `Cc1ccc2[nH]c(C(=O)N(C)C3CCCCC3)c(CNc3ccccn3)c2c1` [Compound 91, N-cyclohexyl-N,5-dimethyl-3-((pyridin-2-ylamino)methyl)-1H-indole-2-carboxamide] belongs 101 to 500 nM; to `Cc1ccc2[nH]c(C(=O)N(C)C3CCCC3)nc2c1C` [Compound 92, N-cyclopentyl-N,6,7-trimethyl-1H-benzo[d]imidazole-2-carboxamide], 101 to 500 nM.
Next, `CN(C(=O)c1nc2c(C3CC3)cccc2[nH]1)C1CCCC1` [Compound 93, N-cyclopentyl-4-cyclopropyl-N-methyl-1H-benzo[d]imidazole-2-carboxamide]: 501 to 1000 nM; `CCc1cccc2[nH]c(C(=O)N(C)C3CCCC3)nc12` [Compound 94, N-cyclopentyl-4-ethyl-N-methyl-1H-benzo[d]imidazole-2-carboxamide]: at least 1000 nM.
Take `CN(C(=O)c1nc2c(C#N)cccc2[nH]1)C1CCCC1` [Compound 95, 4-cyano-N-cyclopentyl-N-methyl-1H-benzo[d]imidazole-2-carboxamide]: the IC50 is at least 1000 nM.
Next, `Cc1ccc2[nH]c(C(=O)N(C)C3CCCC3)c(C(N)=O)c2c1` [Compound 96, N2-cyclopentyl-N2,5-dimethyl-1H-indole-2,3-dicarboxamide]: at most 100 nM.
To `Cc1ccc2[nH]c(C(=O)N(C)C3CCCC3)nc2c1C#N` [Compound 97, 4-cyano-N-cyclopentyl-N,5-dimethyl-1H-benzo[d]imidazole-2-carboxamide] belongs 101 to 500 nM; to `Cc1ccc2[nH]c(C(=O)N(CCO)c3cccc(Cl)c3Cl)nc2c1` [Compound 98, N-(2,3-dichlorophenyl)-N-(2-hydroxyethyl)-5-methyl-1H-benzo[d]imidazole-2-carboxamide], at most 100 nM; to `CN(C(=O)c1nc2c(S(C)(=O)=O)cccc2[nH]1)C1CCCC1` [Compound 99, N-cyclopentyl-N-methyl-4-(methylsulfonyl)-1H-benzo[d]imidazole-2-carboxamide], at least 1000 nM.
